# Data from patent publication US9365522B2, “Pyrazole amide derivative” (AMGEN INC., priority 2015, dated 2016).
# Target: T1, ligand binding domain of human ROR gamma (Homo sapiens, UniProt P51449)
# T1 construct: NM_001001523; expressed in transfected cells; host or cells: HEK293T
# T1 sequence (P51449 247-497 isoform P51449-2): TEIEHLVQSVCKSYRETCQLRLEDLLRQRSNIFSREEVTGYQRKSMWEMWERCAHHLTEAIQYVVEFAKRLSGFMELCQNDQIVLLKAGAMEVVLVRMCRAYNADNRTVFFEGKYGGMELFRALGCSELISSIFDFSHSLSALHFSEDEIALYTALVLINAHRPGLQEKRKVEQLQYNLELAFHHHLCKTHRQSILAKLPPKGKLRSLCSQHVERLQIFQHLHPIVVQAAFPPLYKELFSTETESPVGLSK
# Experiment: ROR gamma reporter gene assay (GAL4-RORγ LBD luciferase, Dual-Glo)
# Assay type: cell-based
# Conditions: HEK293T cells transfected with pM-ROR gamma, 8 concentrations 3.5 nM to 10.5 μM, 24 h incubation; read-out: result (pIC50, inhibition of RORγ transcriptional activity) (converted)
# How it was run: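 Inhibition of RORγ-driven transcription was measured in HEK293T cells expressing a GAL4 fusion of the human RORγ LBD (aa 247-497), with renilla luciferase as internal control. Cells in 10% charcoal-stripped serum received compound (3.5 nM–10.5 μM) for 24 h.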
row,SMILES,IC50 [pM]
1,"COc1cc(Cl)c(C(=O)CN(Cc2cc(F)cc(F)c2)C(=O)c2cnn([C@H]3CC[C@H](C(=O)O)CC3)c2C(F)(F)F)c(Cl)c1 [Example 67, trans-4-(4-((2-(2,6-dichloro-4-methoxyphenyl)-2-oxoethyl)(3,5-dffluorobenzyl)carbamoyl)-5-(trifluoromethyl)-1H-pyrazol-1-yl)cyclohexanecarboxylic acid]",56200
2,"C#Cc1cccc(Cl)c1C(=O)CN(Cc1cc(F)cc(F)c1)C(=O)c1cnn([C@H]2CC[C@H](C(=O)O)CC2)c1C(F)(F)F [Example 68, trans-4-(4-((2-(2-chloro-6-ethynylphenyl)-2-oxoethyl)(3,5-difluorobenzyl)carbamoyl)-5-(trifluoromethyl)-1H-pyrazol-1-yl)cyclohexanecarboxylic acid]",1.32e+06
3,"O=C(CN(Cc1cc(F)cc(F)c1)C(=O)c1cnn([C@H]2CC[C@H](C(=O)O)CC2)c1C(F)(F)F)c1ccc(O)cc1 [Example 69, trans-4-(4-((3,5-difluorobenzyl)(2-(4-hydroxyphenyl)-2-oxoethyl)carbamoyl)-5-(trifluoromethyl)-1H-pyrazol-1-yl)cyclohexanecarboxylic acid]",> 1e+07
4,"O=C(CN(Cc1cc(F)cc(F)c1)C(=O)c1cnn([C@H]2CC[C@H](C(=O)O)CC2)c1C(F)(F)F)c1c(Cl)cc(O)cc1Cl [Example 70, trans-4-(4-((2-(2,6-dichloro-4-hydroxyphenyl)-2-oxoethyl)(3,5-difluorobenzyl)carbarnoyl)-5-(trifluoromethyl)-1H-pyrazol-1-yl)cyclohexanecarboxylic acid]",> 1e+07
5,"O=C(CN(CC1CCOCC1)C(=O)c1cnn([C@H]2CC[C@H](C(=O)O)CC2)c1C(F)(F)F)c1c(Cl)cncc1Cl [Example 71, trans-4-(4-((2-(3,5-dichloropyridin-4-yl)-2-oxoethyl)((tetrahydro-2H-pyran-4-yl)methyl)carbamoyl)-5-(trifluoromethyl)-1H-pyrazol-1-yl)cyclohexanecarboxylic acid]",2.09e+06
6,"O=C(CN(CC1CC1)C(=O)c1cnn([C@H]2CC[C@H](C(=O)O)CC2)c1C(F)(F)F)c1c(Cl)cncc1Cl [Example 72, trans-4-(4-((cyclopropylmethyl)(2-(3,5-dichloropyridin-4-yl)-2-oxoethyl)carbamoyl)-5-(trifluoromethyl)-1H-pyrazol-1-yl)cyclohexanecarboxylic acid]",1.32e+06
7,"CC(C)(F)CN(CC(=O)c1c(Cl)cncc1Cl)C(=O)c1cnn([C@H]2CC[C@H](C(=O)O)CC2)c1C(F)(F)F [Example 73, trans-4-(4-((2-(3,5-dichloropyridin-4-yl)-2-oxoethyl)(2-fluoro-2-methylpropyl)carbamoyl)-5-(trifluoromethyl)-1H-pyrazol-1-yl)cyclohexanecarboxylic acid]",646000
8,"COC(C)(C)CN(CC(=O)c1c(Cl)cncc1Cl)C(=O)c1cnn([C@H]2CC[C@H](C(=O)O)CC2)c1C(F)(F)F [Example 74, trans-4-(4-((2-(3,5-dichloropyridin-4-yl)-2-oxoethyl)(2-methoxy-2-methylpropyl)carbamoyl)-5-(trifluoromethyl)-1H-pyrazol-1-yl)cyclohexanecarboxylic acid]",263000
9,"O=C(CN(CC(F)(F)F)C(=O)c1cnn([C@H]2CC[C@H](C(=O)O)CC2)c1C(F)(F)F)c1c(Cl)cncc1Cl [Example 75, trans-4-(4-((2-(3,5-dichloropyridin-4-yl)-2-oxoethyl)(2,2,2-trifluoroethyl)carbamoyl)-5-(trifluoromethyl)-1H-pyrazol-1-yl)cyclohexanecarboxylic acid]",316000
10,"O=C(CN(Cc1ccncc1)C(=O)c1cnn([C@H]2CC[C@H](C(=O)O)CC2)c1C(F)(F)F)c1c(Cl)cncc1Cl [Example 76, trans-4-(4-((2-(3,5-dichloropyridin-4-yl)-2-oxoethyl)(pyridin-4-ylmethyl)carbamoyl)-5-(trifluoromethyl)-1H-pyrazol-1-yl)cyclohexanecarboxylic acid]",1.7e+06
11,"C[C@]1(C(=O)O)CC[C@H](n2ncc(C(=O)N(CC(=O)c3c(Cl)cncc3Cl)Cc3ccc(F)cc3)c2C(F)(F)F)CC1 [Example 77, trans-4-(4-((2-(3,5-dichloropyridin-4-yl)-2-oxoethyl)(4-fluorobenzyl)carbamoyl)-5-(trifluoromethyl)-1H-pyrazol-1-yl)-1-methylcylohexanecarboxylic acid]",33900
12,"C[C@]1(C(=O)O)CC[C@H](n2ncc(C(=O)N(CC(=O)c3c(Cl)cncc3Cl)Cc3cc(F)cc(F)c3)c2C(F)(F)F)CC1 [Example 78, trans-4-(4-((2-(3,5-dichloropyridin-4-yl)-2-oxoethyl)(3,5-difluorobenzyl)carbamoyl)-5-(trifluoromethyl)-1H-pyrazol-1-yl)-1-methylcyclohexanecarboxylic acid]",10000
13,"C[C@]1(C(=O)O)CC[C@@H](n2ncc(C(=O)N(CC(=O)c3c(Cl)cncc3Cl)Cc3ccc(F)cc3)c2C(F)(F)F)CC1 [Example 79, trans-4-(4-((2-(3,5-dichloropyridin-4-yl)-2-oxoethyl)(4-fluorobenzyl)carbamoyl)-5-(trifluoromethyl)-1H-pyrazol-1-yl)-1-methylcyclohexanecarboxylic acid]",209000
14,"O=C(CN(Cc1ccc(F)cc1)C(=O)c1cnn([C@H]2CC[C@@](F)(C(=O)O)CC2)c1C(F)(F)F)c1c(Cl)cncc1Cl [Example 80, trans-4-(4-((2-(3,5-dichloropyridin-4-yl)-2-oxoethyl)(4-fluorobenzyl)carbamoyl)-5-(trifluoromethyl)-1H-pyrazol-1-yl)-1-fluorocyclohexanecarboxylic acid]",661000
15,"O=C(CN(Cc1ccc(F)cc1)C(=O)c1cnn([C@H]2CC[C@](F)(C(=O)O)CC2)c1C(F)(F)F)c1c(Cl)cncc1Cl [Example 81, cis-4-(4-((2-(3,5-dichloropyridin-4-yl)-2-oxoethyl)(4-fluorobenzyl)carbamoyl)-5-(trifluoromethyl)-1H-pyrazol-1-yl)-1-fluorocyclohexanecarboxylic acid]",93300
16,"O=C(CN(Cc1ccc(F)cc1)C(=O)c1cnn([C@H]2C[C@H](C(=O)O)C2)c1C(F)(F)F)c1c(Cl)cncc1Cl [Example 82, trans-3-(4-((2-(3,5-dichloropyridin-4-yl)-2-oxoethyl)(4-fluorobenzyl)carbarnoyl)-5-(trifluoromethyl)-1H-pyrazol-1-yl)cyclobutanecarboxylic acid]",81300
17,"CC(F)(F)c1c(C(=O)N(CC(=O)c2c(Cl)cncc2Cl)Cc2ccc(F)cc2)cnn1[C@H]1CC[C@H](C(=O)O)CC1 [Example 84, trans-4-(4-((2-(3,5-dichloropyridin-4-yl)-2-oxoethyl)(4-fluorobenzyl)carbamoyl)-5-(1,1-difluoroethyl)-1H-pyrazol-1-yl)cyclohexanecarboxylic acid]",107000
18,"O=C(CN(Cc1cc(F)cc(F)c1)C(=O)c1cnn([C@H]2CC[C@H](O)CC2)c1C(F)(F)F)c1c(Cl)cncc1Cl [Example 85, N-(2-(3,5-dichloropyridin-4-yl)-2-oxoethyl)-N-(3,5-difluorobenzyl)-1-(trans-4-hydroxycyclohexyl)-5-(trifluoromethyl)-1H-pyrazole-4-carboxamide]",1.48e+06
19,"C[S+](=O)([O-])[C@H]1CC[C@@H](n2ncc(C(=O)N(CC(=O)c3c(Cl)cncc3Cl)Cc3ccc(F)cc3)c2C(F)(F)F)CC1 [Example 86, N-(2-(3,5-dichloropyridin-4-yl)-2-oxoethyl)-N-(4-fluorobenzyl)-1-(cis-4-(methylsulfonyl)cyclohexyl)-5-(trifluoromethyl)-1H-pyrazole-4-carboxamide]",162000
20,"C[S+](=O)([O-])[C@H]1CC[C@H](n2ncc(C(=O)N(CC(=O)c3c(Cl)cncc3Cl)Cc3ccc(F)cc3)c2C(F)(F)F)CC1 [Example 87, N-(2-(3,5-dichloropyridin-4-yl)-2-oxoethyl)-N-(4-fluorobenzyl)-1-(trans-4-(methylsulfonyl)cyclohexyl)-5-(trifluoromethyl)-1H-pyrazole-4-carboxamide]",141000
21,"NC(=O)[C@H]1CC[C@H](n2ncc(C(=O)N(CC(=O)c3c(Cl)cncc3Cl)Cc3ccc(F)cc3)c2C(F)(F)F)CC1 [Example 88, l-(trans-4-carbamoylcyclohexyl)-N-(2-(3,5-dichloropyridin-4-yl)-2-oxoethyl)-N-(4-fluorobenzyl)-5-(trifluoromethyl)-1H-pyrazole-4-carboxamide]",87100
22,"O=C(CN(Cc1ccc(F)cc1)C(=O)c1cnn([C@H]2CC[C@H](C(=O)NCCO)CC2)c1C(F)(F)F)c1c(Cl)cncc1Cl [Example 89, N-(2-(3,5-dichloropyridin-4-yl)-2-oxoethyl)-N-(4-fluorobenzyl)-1-(trans-4-((2-hydroxyethyl)carbamoyl)cyclohexyl)-5-(trifluoromethyl)-1H-pyrazole-4-carboxamide]",1.38e+06
23,"O=C(c1cnn([C@H]2CC[C@H](C(=O)O)CC2)c1C(F)(F)F)N(Cc1ccc(F)cc1)CC(O)c1c(Cl)cncc1Cl (stereo partly drawn) [Example 90, trans-4-(4-((2-(3,5-dichloropyridin-4-yl)-2-hydroxyethyl)(4-fluorobenzyl)carbamoyl)-5-(trifluoromethyl)-1H-pyrazol-1-yl)cyclohexanecarboxylic acid]",501000
